Data published in ChEMBL document CHEMBL1141818, “Annonaceous acetogenins: recent progress” (J Nat Prod, 1999).
Converted amounts (≈) assume the structure as drawn.

What was measured:
KB = assay: Cytotoxicity against human KB cells; type: functional, cell-based; conditions: for IC50: Homo sapiens, KB
HCT-8 = assay: Cytotoxicity against human HCT8 cells; type: functional, cell-based
HL-60 = assay: Cytotoxicity against human HL-60 cells; type: functional, cell-based
A2780 = assay: Cytotoxicity against human A2780 cells; type: functional, cell-based
U-251 = assay: Cytotoxicity against human U251 cells; type: functional, cell-based
[1] = Cytotoxicity against human Hep2.2.15 cells; type: functional; conditions: HepG2 2.2.15, read-out: ED50 (the source's name)
[2] = Cytotoxicity against human Hep G2 cells; type: functional; conditions: HepG2, read-out: ED50 (the source's name)
[3] = Cytotoxicity against human CCM2 cells; type: functional; conditions: read-out: ED50 (the source's name)
X5563 = assay: Cytotoxicity against human X5563 cells; type: functional
Blattella germanica [4] = assay: Ratio of LT50 for Blattella germanica Muncie second instars to LT50 for Blattella germanica Jwax second instars; type: functional
Blattella germanica [5] = assay: Ratio of LT50 for Blattella germanica Muncie fifth instars to LT50 for Blattella germanica Jwax fifth instars; type: functional
Aedes aegypti = assay: Insecticidal activity against yellow fever mosquito; type: functional
PC-3 = assay: Cytotoxicity against human PC-3 cells; type: functional; conditions: Homo sapiens, PC-3; read-out: ED50 (the source's name)
MIA PaCa-2 = assay: Cytotoxicity against human MIA PaCa2 cells; type: functional; conditions: Homo sapiens, MIA PaCa-2; read-out: ED50 (the source's name)
A549 = assay: Cytotoxicity against human A549 cells; type: functional; conditions: Homo sapiens, A549; read-out: ED50 (the source's name)
MCF7 [6] = assay: Cytotoxicity against human MCF7 cells; type: functional; conditions: Homo sapiens, MCF7; read-out: ED50 (the source's name)
HT-29 = assay: Cytotoxicity against human HT-29 cells; type: functional; conditions: Homo sapiens, HT-29; read-out: ED50 (the source's name)
RPMI-7951 = assay: Cytotoxicity against human RPMI-7951 cells; type: functional; conditions: read-out: ED50 (the source's name)
MCF7 [7] = assay: Cytotoxicity against human wild type MCF7 cells at 1 ug/ml; type: functional
[8] = Inhibition of NADH oxidase

Structure (SMILES): CCCCCCCCCCCC[C@H](O)[C@H]1CC[C@H]([C@H](O)CC(O)CCCCCCCCCC(=O)CCC2=C[C@H](C)OC2=O)O1 (stereo partly specified) [TONKININ A]
- IC50 (KB): > 10 µg/mL
- IC50 (HCT-8): 0.59 µg/mL (≈ 0.947 µM)
- IC50 (HL-60): 0.016 µg/mL (≈ 0.0257 µM)
- IC50 (A2780): > 10 µg/mL

Structure (SMILES): CCCCCCCCCCCCCC[C@H](O)[C@H]1CC[C@H]([C@@H](CC(O)CCCCCCCCCCC2=C[C@H](C)OC2=O)OC(C)=O)O1 (stereo partly specified) [TONKININ C]
- IC50 (KB): > 10 µg/mL
- IC50 (HCT-8): 0.86 µg/mL (≈ 1.32 µM)
- IC50 (HL-60): 0.00042 µg/mL (≈ 0.000645 µM)
- IC50 (A2780): > 10 µg/mL

Structure (SMILES): CCCCCCCCCCCC[C@@H](O)[C@H]1CC[C@H]([C@H](O)CC(O)CCCCCCCCCC(=O)CCC2=C[C@H](C)OC2=O)O1 (stereo partly specified) [TONKININ B]
- IC50 (KB): > 10 µg/mL
- IC50 (HCT-8): 2.4 µg/mL (≈ 3.85 µM)
- IC50 (HL-60): 0.06 µg/mL (≈ 0.0963 µM)
- IC50 (A2780): > 10 µg/mL

Structure (SMILES): CCCCCCCCCC[C@@H](O)[C@@H]1CC[C@@H]([C@@H]2CC[C@@H]([C@@H](O)CCCCC(=O)CCCCCCCC3=C[C@H](C)OC3=O)O2)O1 [GUANACONNE]
- IC50 (U-251): 1.5 nM

Structure (SMILES): CCCCCCCCCCCC[C@@H](O)[C@H]1CC[C@H]([C@H](O)CC/C=C\CCCCCC[C@@H]2CC(CC(C)=O)C(=O)O2)O1 (mixture of isomers)
- EC50 [1]: 0.14 µg/mL
- EC50 [2]: 0.047 µg/mL
- EC50 [3]: 0.085 µg/mL

Structure (SMILES): CCCCCCCCCC[C@H](O)[C@H]1CC[C@H]([C@H](O)CC[C@H](O)[C@@H]2CC[C@@H](CCCCCCC[C@@H](O)CC3=C[C@H](C)OC3=O)O2)O1 [BULLATALICIN]
- Activity (X5563): 67%
- Ratio (Blattella germanica [4]): 0.9
- Ratio (Blattella germanica [5]): 1.8
- LC50 (Aedes aegypti): 0.1 µg/mL (≈ 0.157 µM)

Structure (SMILES): CCCCCCCCCC[C@@H](O)[C@H]1CC[C@@H]([C@H]2CC[C@H]([C@H](O)CCC[C@H](O)CCCCCCCC3=C[C@H](C)OC3=O)O2)O1 [TRILOBIN]
- LC50 (Aedes aegypti): 0.67 µg/mL (≈ 1.1 µM)

Structure (SMILES): CCCCCCCCCC[C@H](O)[C@@H]1CC[C@@H]([C@@H]2CC[C@@H]([C@@H](O)CCC(O)CCCCCCCCC[C@@H](O)CC3=C[C@H](C)OC3=O)O2)O1 (stereo partly specified) [ARTICULIN]
- EC50 (PC-3): 1.9 µg/mL (≈ 2.85 µM)
- EC50 (MIA PaCa-2): 1 µg/mL (≈ 1.5 µM)
- EC50 (A549): 0.006 µg/mL (≈ 0.009 µM)
- EC50 (MCF7 [6]): 0.004 µg/mL (≈ 0.006 µM)
- EC50 (HT-29): 0.6 µg/mL (≈ 0.9 µM)
- EC50 (RPMI-7951): 0.01 µg/mL (≈ 0.015 µM)
- EC50 (U-251; read-out: ED50 (the source's name)): 0.01 µg/mL (≈ 0.015 µM)

Structure (SMILES): CCCCCCCCCCCCCCCC[C@@H](O)[C@H](O)CCCCCCCCCCCCCCC1=C[C@H](C)OC1=O [TONKINELIN]
- IC50 (KB): > 10 µg/mL
- IC50 (HCT-8): 6.7 µg/mL (≈ 11.6 µM)
- IC50 (HL-60): 1 µg/mL (≈ 1.73 µM)
- IC50 (A2780): > 10 µg/mL

Structure (SMILES): CCCCCCC(O)CCC[C@H](O)[C@@H]1CC[C@@H]([C@@H]2CC[C@H]([C@H](O)CCCCCCCCCCC3=C[C@H](C)OC3=O)O2)O1 (stereo partly specified) [CAROLIN C]
- Activity (MCF7 [7]): 50%
- ED50 (KB): 2 ×10⁻⁴ ug/ml

Structure (SMILES): CCCCCCCCCC[C@@H](O)[C@@H]1CC[C@H]([C@H]2CC[C@@H]([C@@H](O)CCCCCCCCCCC3=C[C@H](C)OC3=O)O2)O1 [MEMBRAROLLIN]
- IC50 [8]: 0.3 nM

Structure (SMILES): CCCCCCCCCC[C@H](O)[C@@H]1CC[C@H]([C@H]2CC[C@@H]([C@H](O)CCCCCCCC[C@@H](O)CC3=C[C@H](C)OC3=O)O2)O1 [ROLLIMEMBRIN]
- IC50 [8]: 0.33 nM
